Assay results: patent US20100152108A1, “METHODS AND COMBINATION THERAPIES FOR TREATING ALZHEIMER'S DISEASE” (priority 2006, published 2010)
Where “and” joins values, the source holds several entries; their conditions need not be identical. Equal entries are not always repeated. Where two headings read alike, the source gives them in different places.

Columns and labels:
amyloid beta 42 (Aβ42) = settings: cultured human cells and animal models; cited from earlier work
[1] = system: human neuroblastoma SK-N-SH; settings: cited from earlier work
[2] = system: patients with mild to moderate Alzheimer's disease
Protocol: Patients were evaluated with the ADAS-cog (primary endpoint), CIBIC-plus, MMSE, NPI and ADL at baseline, week 12 and week 26. The Alzheimer's Disease Assessment Scale Cognitive Subscale (ADAS-cog) score assesses memory and cognition over time. The Mini Mental State Exam (MMSE) also assesses memory and cognition. The Alzheimer's Disease Cooperative Study-Clinical Global Impression of Change (ADCS-CGIC, also called CIBIC-plus) measures the patient's global status over time. It takes into account memory, cognition, behavior and motor disturbance. The Neuropsychiatric Inventory (NPI) measures the patients' behavior and psychiatric disturbance in 12 domains including delusions, hallucinations, agitation/aggression, depression/dysphoria, anxiety, elation/euphoria, apathy/indifference, disinhibitions, irritability/lability, motor disturbance, nighttime behaviors, and appetite/eating. An ADL inventory assesses the impact of cognitive impairment on activities of daily living. […] All subjects enrolled were included in the intention-to-treat analysis. Thus, the analysis includes all randomized patients, even those who discontinued the study prior to study completion.

scopolamine-treated rats = experiment: Two-trial object recognition paradigm in scopolamine-treated rats; assay type: in vivo, Sprague-Dawley rats; settings: for Memory Performance (N-F, difference in time spent with the novel object and familiar object): scopolamine 0.3 mg/kg i.p., mean ± SEM
Protocol: The two-trial object recognition paradigm developed by Ennaceur and Delacour in the rat was used as a model of episodic memory.
Male Sprague-Dawley rats between six and seven weeks old, weighing between 220-300 grams were obtained from Centre d′Elevage (Rue Janvier, B.P. 55, Le Genest-Saint-Isle 53940, France). The animals were housed in groups of 2 to 4 in polypropylene cages (with a floor area of 1032 cm^2) under standard conditions: at room temperature (22±2° C.), under a 12 hour light/12 hour dark cycle, with food and water provided ad libitum. Animals were permitted to acclimate to environmental conditions for at least 5 days before therapy begins, and were numbered on their tails with indelible marker.
The experimental arena was a square wooden box (60 cm×60 cm×40 cm) painted dark blue, with 15 cm×15 cm black squares under a clear plexiglass floor. The arena and objects placed inside the arena were cleaned with water between each trial to eliminate any odor trails left by rats. The arena was placed in a dark room illuminated only by halogen lamps directed towards the ceiling in order to produce a uniformly dim light in the box of approximately 60 lux. The day before testing, animals were allowed to freely explore the experimental arena for three minutes in the presence of two objects (habituation). Animals to be tested were placed in the experimental room at least 30 minutes before testing.
On the day of the experiment, animals were submitted to two trials separated by an interval of 120 minutes. During the first, or acquisition, trial (T1), rats were placed in the arena, which was prepared with two identical objects. The time required for each animal to complete 15 seconds of object exploration was determined, with a cut-off time of four minutes. […] Rats were placed back in the arena for three minutes, and exploration of both objects was determined. Locomotor activity of rats (number of times rats cross grid lines visible under the clear plexiglass floor) was scored for during T1 and T2. […]
The following parameters were measured: (1) time required to achieve 15 seconds of object exploration during T1; (2) locomotor activity during T1 (number of crossed lines); (3) time spent in active exploration of the familiar object during T2 (TFamiliar); (4) time spent in active exploration of the novel object during T2 (TNovel); and (5) locomotor activity during T2 (number of crossed lines). The difference between time spent in active exploration of the novel object during T2 and time spent in active exploration of the familiar object during T2 (ΔTNovel−TFamiliar) was evaluated. The recognition index [(TNovel−TFamiliar/(TNovel+TFamiliar)] was derived, and the percentage of animals with TNovel−TFamiliar>5 seconds was assessed. […]

[3] = system: release of acetylcholine from the cortex; settings: microdialysis; cited from earlier work
[4] = week 26, dimebon 20 mg orally three times a day vs placebo

C[C@@H](C(=O)O)c1ccc(-c2ccccc2)c(F)c1 [Flurizan]
levels of amyloid beta 42 (Aβ42) (amyloid beta 42 (Aβ42)): reduces levels

C#CCN[C@@H]1CCc2ccc(OC(=O)N(C)CC)cc21 [Ladostigil]
apoptosis-induced levels of holo-APP protein [1]: reduces apoptosis-induced levels of holo-APP protein
phospho PKC and release of the nonamyloidogenic amyloid protein [1]: increases phospho PKC and the release of the nonamyloidogenic amyloid protein
apoptotic cell death ([1]; in response to long term culture): reduces apoptotic cell death

Cc1ccc2c(c1)c1c(n2CCc2ccc(C)nc2)CCN(C)C1.Cl.Cl [Dimebon, 2,8-dimethyl-5-(2-(6-methyl-3-pyridyl)-ethyl)-2,3,4,5-tetrahydro-1H-pyrido(4,3-b)indol dihydrochloride]
all other gastrointestinal side effects combined ([2]; in vivo): < 3%
patients who experienced serious adverse events ([2]; in vivo): 3.4%
tolerability ([2]; in vivo): well-tolerated
patients who experienced serious adverse events ([2]; in vivo, po): 2.2%
most common adverse event: dry mouth ([2]; in vivo, dihydrochloride): 18% and 13.5%
ADL mean drug-placebo difference [2, 4]: 3.35 units
CIBIC-plus mean drug-placebo difference [2, 4]: 0.61 units
MMSE mean drug-placebo difference [2, 4]: 2.24 units
NPI mean drug-placebo difference [2, 4]: 3.57 units
ADAS-cog mean drug-placebo difference ([2]; week 26, dimebon 20 mg orally three times a day vs placebo, intention-to-treat): 4.0 units
change in the 5 endpoints, mean baseline scores compared with week 26 scores ([2]; week 26 vs baseline, ADAS-cog, CIBIC-plus, MMSE, NPI, ADL): significant improvements in all 5 endpoints
ADAS-cog mean drug-placebo difference ([2]; week 52, dimebon vs placebo): 6.9 units
ADL mean drug-placebo difference ([2]; week 52, dimebon vs placebo): 5.2 units
CIBIC-plus mean drug-placebo difference ([2]; week 52, dimebon vs placebo): 0.80 units
MMSE mean drug-placebo difference ([2]; week 52, dimebon vs placebo): 2.3 units
NPI mean drug-placebo difference ([2]; week 52, dimebon vs placebo): 3.5 units
change in the 5 endpoints, mean baseline scores compared with week 52 scores ([2]; week 52 vs baseline, ADAS-cog, CIBIC-plus, MMSE, NPI, ADL): improvements in all 5 endpoints
effect at doses below the maximally effective dose, tested individually (scopolamine-treated rats; dimebon 2.5 mg/kg oral, donepezil 0.03 mg/kg intraperitoneal): only partially effective
maximally effective dose (scopolamine-treated rats; oral): 5 mg/kg
Memory Performance (N-F, difference in time spent with the novel object and familiar object) (scopolamine-treated rats; vehicle i.p. + Dimebon 2.5 mg/kg p.o.): 2.57 ± 0.95 s
Memory Performance (N-F, difference in time spent with the novel object and familiar object) (scopolamine-treated rats; vehicle i.p. + Dimebon 5 mg/kg p.o.): 5.00 ± 2.09 s

CN[C@@H](C)C/C=C/c1cncc(OC(C)C)c1 [TC-1734]
release of acetylcholine from the cortex [3]: enhances the release of acetylcholine
